Laboratory results: patent publication US20140349941A1, “AROMATIC-CATIONIC PEPTIDES AND USES OF SAME” (Cornell University, priority 2011, published 2014)
Where no end group is shown, it is not given here. [ ]: non-standard residue; d: D form.

Assays:
cytochrome c (with CL) = cytochrome c (with CL) (Homo sapiens, UniProt P99999); assay: Cytochrome c reduction inhibited by CL; type: biochemical; settings: 500 μM GSH; FIG. 25C
Procedure: Cytochrome c is a carrier of electrons between respiratory complex III and IV in mitochondria. Cytochrome c is reduced (Fe^2+) after it accepts an electron from cytochrome c reductase, and it is then oxidized to Fe^3+ by cytochrome c oxidase.
Reduction of cytochrome c (20 μM) was induced by the addition of glutathione (500 μM) in the absence or presence of CL (100 μg/ml) (FIG. 25A). Reduction of cytochrome c was monitored by absorbance at 550 nm using a 96-well UV-VIS plate reader (Molecular Devices). Addition of CL decreased the rate of cytochrome c reduction by half.

[1] = target: heme environment of cytochrome c (with CL) (Homo sapiens, UniProt P99999); assay: Soret CD spectrum of cyt C in the presence of CL; type: binding; settings: cyt C 10 μM; CL 30 μg/ml; peptide 10 μM; 20 mM HEPES pH 7.5, 25° C.; FIG. 24
heme environment of cytochrome c (with CL), sequence (P99999 2-105 limits assumed, species assumed): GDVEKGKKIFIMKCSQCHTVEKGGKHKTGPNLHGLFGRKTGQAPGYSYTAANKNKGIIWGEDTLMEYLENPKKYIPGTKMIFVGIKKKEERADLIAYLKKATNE
Procedure: Circular dichroism (CD) was carried out to examine the effects of the peptides on protecting the heme environment of cyt C from the acyl chain of CL. For heme proteins, the Soret CD spectrum is strictly correlated with the heme pocket conformation. In particular, the negative 416-420 nm Cotton effect is considered diagnostic of Fe(III)-Met80 coordination in native cyt C (Santucci and Ascoli, 1997). […] CD spectra were obtained using AVIV CD Spectrometer Model 410.
Changes in the Soret CD spectrum of cyt C (10 μM) were recorded in the absence (dotted line) and presence (dashed line) of 30 μg/ml CL, plus addition of different peptides (10 μM) (solid line) (FIG. 24). CD measurements were carried out using 20 mM HEPES, pH 7.5, at 25° C. and expressed as molar ellipticity (θ) (m Deg).

cytochrome c-CL complex [2] = target: T1, cytochrome c-CL complex (Homo sapiens, UniProt P99999); assay: Cytochrome c/CL peroxidase activity (amplex red); type: biochemical; settings: figure legend FIG. 29A-C; comparison at a fixed concentration of 10 μM (FIG. 29C)
T1 sequence (P99999 2-105 limits assumed, species assumed, one chain of several): as the sequence (P99999 2-105 limits assumed, species assumed) above
Excerpt: The six coordination of the heme in cytochrome c prevents direct interaction of H2O2 with the catalytic metal site, and native cytochrome c in solution is a poor peroxidase. Upon interaction with CL, cytochrome c undergoes a structural change with rupture of the Fe-Met80 coordination. […] The mechanism of action of cytochrome c peroxidase is similar to that of other peroxidases, such as horse radish peroxidase (HRP). Thus it is possible to use the amplex red-HRP reaction to investigate cytochrome c peroxidase activity. In the presence of peroxidase, amplex red (AR) reacts with H2O2 to form the red-fluorescent oxidation product, resorufin (Ex/Em=571/585).
Cytochrome c (2 μM) was mixed with CL (25 μg/ml) and 10 μM H2O2 in 20 mM HEPES, pH 7.4. Amplex red (50 μM) was then added and fluorescence emission monitored in real time using Hitachi F4500 fluorescence spectrophotometer. Addition of amplex red elicited rapid increase in fluorescence signal due to resorufin formation, providing direct evidence for peroxidase activity of cytochrome c/CL complex (FIG. 29A).

cytochrome c-CL complex [3] = target: T1, cytochrome c-CL complex; assay: Fluorescence spectroscopy of peptide with cytochrome c in the presence of CL; type: binding; settings: for peptide fluorescence on addition of cytochrome c in the presence of CL: 2 μM cytochrome c; for emission maxima: with CL 2.5 μg/ml
Procedure: Fluorescence emission of SS-19 (10 μM) was monitored in real time (Ex/Em=320 nm/420 nm) using Hitachi F-4500 fluorescence spectrophotometer. […] CL may potentiate the interaction between SS-19 and cytochrome c by serving as an anionic platform for the two cationic molecules.
The quenching by cytochrome c was not displaced by sequential additions of bovine serum albumin (500 μg/ml) (FIG. 23C, A+arrows).
SS-36 also contains the polarity-sensitive fluorescent amino acid aladan.

[4] = Fluorescence spectroscopy of peptide interaction with cardiolipin; type: binding; settings: for increase in quantal yield of peptide fluorescence: peptide 1 μM
Excerpt: The peptides Dmt-D-Arg-(atn)Dap-Lys-NH2 (SS-19) and Dmt-D-Arg-Phe-Lys-Ald-NH2 (SS-37)cationic peptides carry net positive charge at neutral pH. They are expected to associate with anionic phospholipid cardiolipin based on electrostatic interaction. The interaction of small peptides with lipid membranes can been studied using fluorescence spectroscopy (Surewicz and Epand, 1984). […] Polarity-sensitive fluorescent probes were incorporated into the peptides and fluorescence spectroscopy was used to determine if SS-19, SS-37 and SS-36 interact with CL.
The peptide Dmt-D-Arg-Phe-(atn)Dap-NH2 (SS-19) contains anthraniloyl incorporated into diaminopropionic acid. Anthraniloyl derivatives fluoresce in the 410-420 nm range when excited at 320-330 nm (Hiratsuka T, 1983). The quantum yield of anthraniloyl derivatives is strongly dependent on the local environment, and can increase 5-fold going from water to 80% ethanol, together with a blue shift in the emission maxima (λ max) of <10 nm (Hiratsuka T, 1983). Fluorescence emission spectrum of SS-19 (1 μM) alone, and in the presence of increasing concentrations of CL (5 to 50 μg/ml), was monitored following excitation at 320 nm using Hitachi F-4500 fluorescence spectrophotometer.
The peptide Dmt-D-Arg-Phe-Lys-Ald-NH2 (SS-37) contains an additional amino acid, aladan (Ald), which has been reported to be particularly sensitive to the polarity of its environment and it has been used to probe the electrostatic character of proteins (Cohen et al., 2002). When excited at 350 nm, λmax shifts from 542 nm in water to 409 nm in heptane, accompanied by a significant increase in quantal yield (Cohen et al., 2001). Fluorescence emission spectrum of SS-37 (1 μM) alone, and in the presence of increasing concentrations of CL, was monitored following excitation at 350 nm. Addition of CL (5 to 50 μg/ml) led to a 3-fold increase in quantal yield of SS-37 as well as a clear blue shift in λmax, from 525 nm without CL to 500 nm with 50 μg/ml CL (FIG. 21B).
The peptide Dmt-D-Arg-Ald-Lys-NH2 (SS-36) contains Ald in place Phe^3. Fluorescence emission spectrum of SS-36 (1 μM) alone, and in the presence of increasing concentrations of CL, was monitored following excitation at 350 nm. SS-36 was the most sensitive to the addition of CL, with dramatic increase in quantal yield and blue shift observed with much lower added amounts of CL (1.25 to 5 μg/ml). The λmax shifted from 525 nm without CL to 500 nm with as little as 1.25 μg/ml CL, and quantal yield increased by more than 100-fold with the addition of 5 μg/ml of CL (FIG. 21C).

isolated mitochondria = assay: ATP synthesis in isolated mitochondria; type: biochemical, rat; settings: mitochondria energized with low concentrations of succinate; FIG. 15
Procedure: (§1) Fresh mitochondria were isolated from rat kidney as described previously. Electron flux was measured by O2 consumption (Oxygraph Clark electrode) as previously described using different substrates for C1 (glutamate/malate), C2 (succinate), and C3 (TMPD/ascorbate). Assays were carried out under low substrate conditions in order to avoid saturating the enzyme reactions. ATP production in isolated mitochondria was determined kinetically using the luciferase method (Biotherma) in a 96-well luminescence plate reader (Molecular Devices). The initial maximal rate for ATP synthesis was determined over the first minute.
The rate of mitochondrial ATP synthesis was determined by measuring ATP in respiration buffer collected from isolated mitochondria 1 min after addition of […] (FIG. 6). ATP was assayed by HPLC. All experiments were carried out in triplicate, with n=3.
(§2) SS-20 or SS-31 was added at 100 μM concentrations to isolated mitochondria in respiration buffer containing 0.5 mM succinate (complex II substrate) and 400 μM ADP. Similar increases in O2 consumption were observed when low concentrations of complex I substrates (glutamate/malate) were used (data not shown).
Increase in electron flux in the electron transport chain can either result in increase in ATP synthesis or increase in electron leak and generation of free radicals. ATP synthesis in isolated mitochondria was assayed by HPLC.

[5] = test system: isolated rat kidney mitochondria; assay: O2 consumption of isolated rat kidney mitochondria (Oxygraph); type: biochemical
Procedure: as §1
Oxygen consumption of isolated rat kidney mitochondria was determined using the Oxygraph (FIG. 5). Rates of respiration were measured in the presence of different concentrations of SS-31 in state 2 (400 μM ADP only), state 3 (400 μM ADP and 500 μM substrates) and state 4 (substrates only). All experiments were done in triplicate with n=4-7.
as §2
SS-20 or SS-31 was added at 10 μM or 100 μM concentrations to isolated mitochondria in respiration buffer containing glutamate/malate (complex I substrate), 0.5 mM succinate (complex II substrate) or 3 μM TMPD/1 mM ascorbate (direct reductant of cyt C). 400 μM ADP was added to initiate State 3 respiration.

cytochrome c = cytochrome c (Homo sapiens, UniProt P99999); assay: Cytochrome c reduction monitored by absorption spectroscopy (glutathione or NAC as reducing agent); type: biochemical; settings: absorbance at 550 nm; FIG. 13
cytochrome c, sequence (P99999 2-105 limits assumed, species assumed): as above
Procedure: Cytochrome c reduction: increasing amounts of aromatic-cationic peptides were added to a solution of oxidized cyt c. The formation of reduced cyt c was monitored by absorbance at […]. The rate of cyt c reduction was determined by non-linear analysis (Prizm software).
Time-resolved UV-Visible absorption spectroscopy was used to study the electron transport process of cyt c in the presence of peptides. Reduced cyt c was monitored by absorbance at a broad-band spectral range (200-1100 nm). The absorption changes were recorded with a UV/Visible spectrophotometer (Ultrospec 3300 pro, GE) in quartz cells with path lengths of 1 or 2 mm. N-acetylcysteine (NAC) and glutathione were used as electron donors to reduce oxidized cyt c. The rate constant of cyt c reduction was estimated by adding various concentrations of peptides. The dose dependence of the peptides was correlated to the cyt c reduction kinetics.
Absorption spectroscopy (UltroSpec 3300 Pro; 220-1100 nm) was used to determine if SS-31 modulates cyt c reduction (FIG. 1). Reduction of cyt c with glutathione is associated with multiple shifts in the Q band (450-650 nm), with a prominent shift at 550 nm.
Reduction of cyt c was monitored by increase in absorbance at 550 nm. […] Similar results were obtained using N-acetylcysteine (NAC) as a reducing agent (not shown).

cytochrome c (with CL), sequence (P99999 2-105 limits assumed, species assumed): as above

Substance: D-Arg-Tyr-Lys-Phe-NH2 ([dR]YKF-NH2; N-terminus assumed; SMILES N=C(N)NCCC[C@@H](N)C(=O)N[C@@H](Cc1ccc(O)cc1)C(=O)N[C@@H](CCCCN)C(=O)N[C@@H](Cc1ccccc1)C(N)=O) [SPI-231]
- CL inhibition of cyt C reduction (cytochrome c (with CL)): prevented CL inhibition of cyt C reduction
- disappearance of the negative Cotton effect caused by CL (heme environment of cytochrome c) [1]: Protect the Heme Environment of Cytochrome C from the Acyl Chain of CL
- peroxidase activity in cytochrome c/CL complex (cytochrome c-CL complex [2]): preventing peroxidase activity in cytochrome c/CL complex

Substance: Dmt-D-Arg-Ald-Lys-NH2 [SS-36]
- disappearance of the negative Cotton effect caused by CL (heme environment of cytochrome c) [1]: Protect the Heme Environment of Cytochrome C from the Acyl Chain of CL
- peroxidase activity in cytochrome c/CL complex (cytochrome c-CL complex [2]): preventing peroxidase activity in cytochrome c/CL complex
- peptide fluorescence on addition of cytochrome c in the presence of CL (cytochrome c-CL complex [3]; CL 2.5 μg/ml, FIG. 23D): dramatic quenching of peptide's fluorescence
- peptide fluorescence on addition of CL (cytochrome c-CL complex [3]; CL 2.5 μg/ml, FIG. 23D): increase in SS-36 fluorescence
- emission maxima (cytochrome c-CL complex [3]; after 2 μM cytochrome c): 450 nm
- emission maxima (cytochrome c-CL complex [3]; before cytochrome c): 510 nm
- increase in quantal yield of peptide fluorescence ([4]; CL 5 μg/ml, excitation 350 nm): more than 100 fold
- λmax of fluorescence emission ([4]; with 1.25 μg/ml CL, excitation 350 nm): 500 nm
- λmax of fluorescence emission ([4]; without CL, excitation 350 nm): 525 nm

Substance: Dmt-D-Arg-Phe-Lys-Ald-NH2 [SS-37]
- peroxidase activity in cytochrome c/CL complex (cytochrome c-CL complex [2]): preventing peroxidase activity in cytochrome c/CL complex
- displacement of cytochrome c quenching by bovine serum albumin in the presence of CL (cytochrome c-CL complex [3]; CL 50 μg/ml, BSA 500 μg/ml, FIG. 23C): not displaced
- peptide fluorescence on addition of cytochrome c in the presence of CL (cytochrome c-CL complex [3]; peptide 10 μM, CL 50 μg/ml): similarly quenched
- increase in quantal yield of peptide fluorescence ([4]; CL 5-50 μg/ml): 3 fold
- λmax of fluorescence emission ([4]; with 50 μg/ml CL, excitation 350 nm): 500 nm
- λmax of fluorescence emission ([4]; without CL, excitation 350 nm): 525 nm

Substance: F[dR]FK-NH2 [SS-20]
- CL inhibition of cyt C reduction (cytochrome c (with CL)): prevented CL inhibition of cyt C reduction
- rate of ATP production (isolated mitochondria): significant increase in the rate of ATP production
- O2 consumption in state 3 respiration ([5]; glutamate/malate, succinate or TMPD/ascorbate, 400 μM ADP, FIG. 26): increases O2 consumption in state 3 respiration
- electron flux, as measured by O2 consumption ([5]; peptide 10 μM or 100 μM, complex I, complex II substrate or TMPD/ascorbate, FIG. 26): can promote electron flux
- electron flux, as measured by O2 consumption ([5]; peptide 100 μM, 0.5 mM succinate, 400 μM ADP, FIG. 14): can promote electron flux
- disappearance of the negative Cotton effect caused by CL (heme environment of cytochrome c) [1]: Protect the Heme Environment of Cytochrome C from the Acyl Chain of CL
- peroxidase activity in cytochrome c/CL complex (cytochrome c-CL complex [2]): preventing peroxidase activity in cytochrome c/CL complex
- kinetics of cyt c reduction induced by glutathione (GSH) (cytochrome c): can accelerate the kinetics of cyt c reduction
